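Results reflect a 48-hour exposure of cells in 96-well plates to compound at five concentrations. GI50 marks 50% less growth.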 The source made the active and inactive calls. Cut-off read from the data, not from the text of the source: active = GI50 up to about 1.1 µM and inactive = higher.
What was measured:
Assay in all cases: DTP human tumour cell line panel, 48 h
BT-549 = tested on: BT-549
EKVX = tested on: EKVX
T47D = tested on: T47D
NCI-H23 = tested on: NCI-H23
NCI-H226 = tested on: NCI-H226
SF-268 = tested on: SF-268
HT-29 = tested on: HT-29
CCRF-CEM = tested on: CCRF-CEM
NCI-H522 = tested on: NCI-H522
NCI/ADR-RES = tested on: NCI/ADR-RES
Hs-578T = tested on: Hs-578T
UO-31 = tested on: UO-31
HL-60 = tested on: HL-60
SK-OV-3 = tested on: SK-OV-3
TK-10 = tested on: TK-10
HCT-116 = tested on: HCT-116
HCC 2998 = tested on: HCC 2998
COLO 205 = tested on: COLO 205
MCF7 = tested on: MCF7
SF-539 = tested on: SF-539

| Compound | GI50 (BT-549) | GI50 (EKVX) | GI50 (T47D) | GI50 (NCI-H23) | GI50 (NCI-H226) | GI50 (SF-268) | GI50 (HT-29) | GI50 (CCRF-CEM) | GI50 (NCI-H522) | GI50 (NCI/ADR-RES) | GI50 (Hs-578T) | GI50 (UO-31) | GI50 (HL-60) | GI50 (SK-OV-3) | GI50 (TK-10) | GI50 (HCT-116) | GI50 (HCC 2998) | GI50 (COLO 205) | GI50 (MCF7) | GI50 (SF-539) |
| --- | --- | --- | --- | --- | --- | --- | --- | --- | --- | --- | --- | --- | --- | --- | --- | --- | --- | --- | --- | --- |
| N#CC(C#N)=C1C(C#N)=C(N)NC12OCCO2 | > 100 µM (inactive) | > 100 µM (inactive) | > 100 µM (inactive) | > 100 µM (inactive) | > 100 µM (inactive) | > 100 µM (inactive) | > 100 µM (inactive) | > 100 µM (inactive) | > 100 µM (inactive) | > 100 µM (inactive) | > 100 µM (inactive) | > 100 µM (inactive) | > 100 µM (inactive) | > 100 µM (inactive) | > 100 µM (inactive) | > 100 µM (inactive) | > 100 µM (inactive) | > 100 µM (inactive) | > 100 µM (inactive) |  |
| CC(C)=CCc1c(O)c(CC=C(C)C)c2oc(-c3ccc(O)cc3O)c(CC=C(C)C)c(=O)c2c1O | 7.98 µM (inactive) | 12.4 µM (inactive) | 3.97 µM (inactive) | 5.56 µM (inactive) | 23 µM (inactive) | 9.16 µM (inactive) | 7.96 µM (inactive) | 2.1 µM (inactive) | 7.31 µM (inactive) | 12.3 µM (inactive) | 7.76 µM (inactive) | 8.22 µM (inactive) | 7.06 µM (inactive) | 13.3 µM (inactive) | 8.85 µM (inactive) | 4.97 µM (inactive) | 4.06 µM (inactive) | 27.1 µM (inactive) | 3.98 µM (inactive) | 16.3 µM (inactive) |
| CCCN(CCC)C(=S)N/N=C(/C)c1ccccc1O | 5.25 µM (inactive) | 6.31 µM (inactive) | 3.61 µM (inactive) | 12.1 µM (inactive) |  | 4.42 µM (inactive) | 6.28 µM (inactive) | 2.96 µM (inactive) | 1.19 µM (inactive) | 1.57 µM (inactive) | > 70 µM (inactive) | 4.11 µM (inactive) | 3.96 µM (inactive) | 10.2 µM (inactive) | 6.19 µM (inactive) | 4.04 µM (inactive) | 10.3 µM (inactive) | 6.46 µM (inactive) | 4.02 µM (inactive) | 4.06 µM (inactive) |
| NNC(=S)N/N=C(\C(=O)Nc1cccc(O)c1)C1C(=O)NC(=S)NC1=O | > 100 µM (inactive) | > 100 µM (inactive) | > 100 µM (inactive) |  | > 100 µM (inactive) | > 100 µM (inactive) | > 100 µM (inactive) | > 100 µM (inactive) | > 100 µM (inactive) | > 100 µM (inactive) | > 100 µM (inactive) | > 100 µM (inactive) | > 100 µM (inactive) | > 100 µM (inactive) | > 100 µM (inactive) | > 100 µM (inactive) | > 100 µM (inactive) |  | > 100 µM (inactive) | > 100 µM (inactive) |
| C/C(=N\Nc1nc2ccccc2s1)c1ncccn1 | 0.346 µM (active) | < 0.0111 µM (active) | < 0.01 µM (active) | 0.0614 µM (active) | < 0.0185 µM (active) | 0.0345 µM (active) | < 0.01 µM (active) | 0.1 µM (active) | 0.0128 µM (active) | 0.0172 µM (active) | 0.59 µM (active) | 0.022 µM (active) | < 0.01 µM (active) | 0.103 µM (active) |  | < 0.0193 µM (active) | 0.953 µM (active) | < 0.01 µM (active) | 0.0164 µM (active) | 0.0757 µM (active) |
| CC(C)N(C(=O)C12C3(C(=O)OC(C)(C)C)C4C5(C#N)C3C1(C(=O)OC(C)(C)C)C5C42C(=O)OC(C)(C)C)C(C)C (configuration not stated) | > 100 µM (inactive) | 53 µM (inactive) | 31.9 µM (inactive) | > 100 µM (inactive) |  | > 100 µM (inactive) | 34.6 µM (inactive) | 10.9 µM (inactive) | 35.3 µM (inactive) | 76.4 µM (inactive) | 28.7 µM (inactive) | 60.4 µM (inactive) | 20.1 µM (inactive) |  | > 100 µM (inactive) | 19.8 µM (inactive) | 97.9 µM (inactive) | 21.5 µM (inactive) | 14.4 µM (inactive) | > 100 µM (inactive) |
| CC(C)=CCC/C(C)=C/CC/C(C)=C/CC(CO)N(C)CC/C=C(\C)CCC=C(C)C (configuration not stated) | 14.1 µM (inactive) | 10.4 µM (inactive) | 3.64 µM (inactive) | 7.96 µM (inactive) | 13.7 µM (inactive) | 13.3 µM (inactive) | 3.5 µM (inactive) | 3.03 µM (inactive) | 2.09 µM (inactive) | 4.62 µM (inactive) | 5.31 µM (inactive) | 4.65 µM (inactive) |  | 14.9 µM (inactive) | 9.53 µM (inactive) | 2.15 µM (inactive) | 3.04 µM (inactive) | 2.42 µM (inactive) | 2.11 µM (inactive) | 3.06 µM (inactive) |
